Among the data in patent US12448394B2, “Heterocyclic pyrazole derivatives as type III receptor tyrosine kinase inhibitors” (DEVELOPMENT CENTER FOR BIOTECHNOLOGY, priority 2019, dated 2025) are IC50 values, retold here.

The target in test [1] is T1, PDGFRα kinase (Homo sapiens, UniProt P16234).
T1 construct: purchased SignalChem
Description: PDGFRα kinase assay (AlphaScreen). It counts as biochemical. Conditions: read-out: Ranking of IC50 values, PDGFRα. The method in brief: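 IC50 values came from duplicate serial dilutions, with product read by AlphaScreen. The reaction ran 30 min at 30 °C, then EDTA stop: 1.5 ng recombinant enzyme, biotin-poly(Glu4:Tyr1) substrate, 10 μM ATP, 10 mM MOPS pH 7.0, 10 mM MgCl2.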
(In general: Alpha assays give light when donor and acceptor beads are brought close together.)

Test [2] relates to A375 melanoma cell with BRAF V600E mutation. Description: A375 cell proliferation assay (counter screen). The test is classed as cell-based, human. Conditions: Homo sapiens, A-375, A375 cells, 72 hours treatment, CellTiter96, read-out: anti-proliferation activity A375 BRAF V600E, IC50 ranking. The method in brief:
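A375 cells (BRAF V600E) seeded at 2000 cells/well in DMEM with 10% FBS, settled overnight at 37° C, 5% CO2, then exposed to increasing compound concentrations for 72 hours. Viability read by MTS-type CellTiter96 AQueous reagent, absorbance at 490 nm after 2–4 hours.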
A general note: The purpose of a counterscreen is to sort out artefacts and off-target activity.

The subject of test [3] is HCC827 NSCLC cell with EGFR exon 19 deletion mutation. Description: HCC827 cell proliferation assay (counter screen). The following applies: Homo sapiens, HCC827 cells, 72 hours treatment, CellTiter96, read-out: anti-proliferation activity HCC827 EGFR Exon19 del, IC50 ranking. It counts as cell-based, human. In outline:
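HCC827 cells (EGFR exon 19 deletion) were seeded at 8000 cells/well in RPMI1640 with 10% FBS, then exposed to increasing compound concentrations for 72 h at 37 °C. Viability was read by CellTiter96 AQueous One (MTS), absorbance 490 nm after 2–4 h.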

For test [4], the target named is T2, FLT3-D835Y mutant kinase (Homo sapiens, UniProt P36888, D835Y).
T2 construct: purchased SignalChem
T2 sequence (P36888 27-993 D835Y): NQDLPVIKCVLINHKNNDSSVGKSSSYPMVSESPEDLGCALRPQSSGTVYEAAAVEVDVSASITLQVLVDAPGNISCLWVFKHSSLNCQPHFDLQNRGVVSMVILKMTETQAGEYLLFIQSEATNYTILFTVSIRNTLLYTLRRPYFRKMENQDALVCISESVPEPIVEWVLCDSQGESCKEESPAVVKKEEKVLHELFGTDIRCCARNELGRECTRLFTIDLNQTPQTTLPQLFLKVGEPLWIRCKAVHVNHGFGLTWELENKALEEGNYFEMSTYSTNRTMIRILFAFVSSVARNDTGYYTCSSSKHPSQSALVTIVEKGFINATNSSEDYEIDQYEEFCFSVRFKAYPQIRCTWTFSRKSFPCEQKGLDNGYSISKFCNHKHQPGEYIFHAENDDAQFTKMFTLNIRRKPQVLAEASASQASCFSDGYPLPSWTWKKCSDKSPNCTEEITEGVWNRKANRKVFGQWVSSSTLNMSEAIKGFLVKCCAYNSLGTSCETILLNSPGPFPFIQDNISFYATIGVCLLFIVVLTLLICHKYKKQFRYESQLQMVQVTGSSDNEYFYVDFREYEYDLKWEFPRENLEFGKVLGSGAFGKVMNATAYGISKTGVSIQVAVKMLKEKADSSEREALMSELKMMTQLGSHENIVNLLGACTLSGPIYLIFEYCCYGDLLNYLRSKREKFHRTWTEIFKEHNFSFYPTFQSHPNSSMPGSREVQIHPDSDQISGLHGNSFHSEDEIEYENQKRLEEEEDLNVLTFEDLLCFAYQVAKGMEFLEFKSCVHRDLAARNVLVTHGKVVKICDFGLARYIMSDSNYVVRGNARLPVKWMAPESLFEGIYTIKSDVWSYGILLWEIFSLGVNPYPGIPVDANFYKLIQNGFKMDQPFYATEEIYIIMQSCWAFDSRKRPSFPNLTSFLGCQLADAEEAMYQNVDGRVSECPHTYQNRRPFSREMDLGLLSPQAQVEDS
Description: FLT3-D835Y mutant kinase assay (AlphaScreen). The test is classed as biochemical. The following applies: read-out: Ranking of IC50 values, FLT3-D835Y. In outline:
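AlphaScreen readout of biotin-poly(Glu4:Tyr1) phosphorylation by 1 ng recombinant FLT3-D835Y. Conditions were 10 μM ATP, 10 mM MgCl2, MOPS pH 7.0, 30 min at 30 °C, EDTA stop. Compounds were serially diluted in duplicate to derive IC50.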

T1 sequence (P16234 24-1089): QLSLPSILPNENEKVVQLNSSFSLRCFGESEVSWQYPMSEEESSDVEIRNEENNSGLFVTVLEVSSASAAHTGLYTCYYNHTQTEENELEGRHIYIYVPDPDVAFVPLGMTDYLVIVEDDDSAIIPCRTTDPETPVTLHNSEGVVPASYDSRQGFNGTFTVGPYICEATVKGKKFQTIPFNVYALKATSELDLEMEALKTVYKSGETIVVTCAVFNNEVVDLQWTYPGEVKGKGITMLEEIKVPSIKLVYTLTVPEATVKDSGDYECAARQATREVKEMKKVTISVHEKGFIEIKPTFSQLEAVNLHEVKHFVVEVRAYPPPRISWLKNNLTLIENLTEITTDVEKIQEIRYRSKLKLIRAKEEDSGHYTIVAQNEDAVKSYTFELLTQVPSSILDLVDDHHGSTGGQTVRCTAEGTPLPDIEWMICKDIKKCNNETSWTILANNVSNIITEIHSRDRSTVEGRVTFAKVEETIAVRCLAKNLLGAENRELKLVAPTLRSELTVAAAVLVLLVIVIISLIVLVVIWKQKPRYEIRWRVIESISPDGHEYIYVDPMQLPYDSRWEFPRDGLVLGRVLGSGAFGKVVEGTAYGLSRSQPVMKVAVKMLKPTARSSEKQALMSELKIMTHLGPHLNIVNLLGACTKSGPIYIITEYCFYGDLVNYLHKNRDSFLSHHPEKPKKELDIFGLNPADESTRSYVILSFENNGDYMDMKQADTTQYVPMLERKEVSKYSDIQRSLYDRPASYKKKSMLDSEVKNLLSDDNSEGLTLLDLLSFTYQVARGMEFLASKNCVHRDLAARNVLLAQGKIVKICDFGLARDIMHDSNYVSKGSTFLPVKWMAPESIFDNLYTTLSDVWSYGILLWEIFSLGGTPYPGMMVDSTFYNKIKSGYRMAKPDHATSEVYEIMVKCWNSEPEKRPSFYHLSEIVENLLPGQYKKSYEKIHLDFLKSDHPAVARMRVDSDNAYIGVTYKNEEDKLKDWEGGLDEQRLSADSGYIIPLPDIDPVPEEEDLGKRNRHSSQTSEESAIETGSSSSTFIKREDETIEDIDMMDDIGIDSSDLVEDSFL

Regarding `Cn1ncc2ccc(-c3n[nH]c4c3Cc3sc(-c5ccc(C(=O)N6CCOCC6)c(F)c5)cc3-4)cc21` [Compound 44, (2-fluoro-4-(3-(1-methyl-1H-indazol-6-yl)-1,4-dihydrothieno[2′,3′:4,5]cyclopenta[1,2-c]pyrazol-6-yl)phenyl)(morpholino) methanone], the IC50 in test [1] was 1 to 10 nM; in test [2], more than 10000 nM; in test [3] it was more than 10000 nM; in test [4], less than 1 nM.

Consider `c1cc(CN2CCOCC2)ncc1-c1cc2c(s1)Cc1c(-c3ccc4cn[nH]c4c3)n[nH]c1-2` [Compound 18, 4-((5-(3-(1H-indazol-6-yl)-1,4-dihydrothieno[2′,3′:4,5]cyclopenta[1,2-c]pyrazol-6-yl)pyridin-2-yl)methyl) morpholine], for which the IC50 in test [1] was 1 to 10 nM; in test [2] it was more than 10000 nM; in test [3], more than 10000 nM; in test [4], 1 to 10 nM.

As to `Cn1ncc2ccc(-c3n[nH]c4c3Cc3sc(-c5ccc(CN6CC7(COC7)C6)cc5)cc3-4)cc21` [Compound 102, 6-(4-(3-(1-methyl-1H-indazol-6-yl)-1,4-dihydro-thieno[2′,3′:4,5]cyclopenta [1,2-c]pyrazol-6-yl)benzyl)-2-oxa-6-azaspiro [3.3]heptane], the IC50 is 1 to 10 nM in test [1], more than 10000 nM in test [2], more than 10000 nM in test [3] and less than 1 nM in test [4].

For `Cn1ncc2ccc(-c3n[nH]c4c3Cc3sc(-c5ccc(CN6CCOCC6)cc5F)cc3-4)cc21` [Compound 32, 4-(3-fluoro-4-(3-(1-methyl-1H-indazol-6-yl)-1,4-dihydrothieno [2′,3′:4,5]cyclopenta [1,2-c]pyrazol-6-yl)benzyl)morpholine], the IC50 in test [1] is 10 to 30 nM; in test [2] it was more than 10000 nM; in test [3] it was more than 10000 nM; in test [4], less than 1 nM.

As for `COC1CN(Cc2ccc(-c3cc4c(s3)Cc3c(-c5ccc6cnn(C)c6c5)n[nH]c3-4)cc2)C1` [Compound 105, 6-(4-((3-methoxyazeti-din-1-yl)methyl)phenyl)-3-(1-methyl-1H-indazol-6-yl)-1,4-dihydrothieno [2′,3′:4,5]cyclopenta [1,2-c]pyrazole], the IC50 in test [1] was 1 to 10 nM; in test [2] it was more than 10000 nM; in test [3] it was more than 10000 nM; in test [4] it was less than 1 nM.

Regarding `Cn1ncc2ccc(-c3n[nH]c4c3Cc3sc(-c5csc(C(=O)N6CCOCC6)n5)cc3-4)cc21` [Compound 60, (4-(3-(1-methyl-1H-indazol-6-yl)-1,4-dihydro-thieno[2′,3′:4,5]cyclopenta [1,2-c]pyrazol-6-yl)thiazol-2-yl)(morpholino) methanone], the IC50 in test [1] was 1 to 10 nM; in test [2], 1000 to 10000 nM; in test [3] it was 1000 to 10000 nM; in test [4], less than 1 nM.

As to `Cc1cc(-c2cc3c(s2)Cc2c(-c4ccc5cnn(C)c5c4)n[nH]c2-3)ccc1CN1CCOCC1` [Compound 26, 4-(2-methyl-4-(3-(1-methyl-1H-indazol-6-yl)-1,4-dihydrothieno[2′,3′:4,5]cyclopenta[1,2-c]pyrazol-6-yl)benzyl)morpholine], the IC50 in test [1] was 10 to 30 nM; in test [2] it was more than 10000 nM; in test [3] it was more than 10000 nM; in test [4], 1 to 10 nM.

As to `Cn1ncc2ccc(-c3n[nH]c4c3Cc3sc(-c5ccc(CN6CCOCC6=O)cc5)cc3-4)cc21` [Compound 59, 4-(4-(3-(1-methyl-1H-indazol-6-yl)-1,4-dihydro-thieno[2′,3′:4,5]cyclopenta [1,2-c]pyrazol-6-yl)benzyl)morpholin-3-one], the IC50 in test [1] was 1 to 10 nM; in test [2] it was more than 10000 nM; in test [3] it was more than 10000 nM; in test [4], less than 1 nM.

Take `Cn1ncc2ccc(-c3n[nH]c4c3Cc3sc(-c5ccc(CN6CCOCC6)s5)cc3-4)cc21` [Compound 51, 4-((5-(3-(1-methyl-1H-indazol-6-yl)-1,4-dihydro-thieno[2′,3′:4,5]cyclopenta [1,2-c]pyrazol-6-yl)thiophen-2-yl)methyl) morpholine]: the IC50 in test [1] was 10 to 30 nM; in test [2], more than 10000 nM; in test [3], more than 10000 nM; in test [4], less than 1 nM.

With `Cn1ncc2ccc(-c3n[nH]c4c3Cc3sc(-c5ccc(CN6CCSCC6)cc5)cc3-4)cc21` [Compound 39, 3-(1-methyl-1H-indazol-6-yl)-6-(4-(thiomorpho-linomethyl)phenyl)-1,4-dihydrothieno[2′,3′:4,5] cyclopenta[1,2-c]pyrazole], the IC50 in test [1] was 10 to 30 nM; in test [2], more than 10000 nM; in test [3] it was more than 10000 nM; in test [4], 1 to 10 nM.

With `Cn1ncc2ccc(-c3n[nH]c4c3Cc3sc(-c5ccc(C(=O)N6CCOCC6)nc5)cc3-4)cc21` [Compound 23, (5-(3-(1-methyl-1H-indazol-6-yl)-1,4-dihydro-thieno[2′,3′:4,5]cyclopenta [1,2-c]pyrazol-6-yl)pyridin-2-yl)(morpholino) methanone], the IC50 in test [1] is 1 to 10 nM; in test [2], more than 10000 nM; in test [3], more than 10000 nM; in test [4] it was less than 1 nM.

In the case of `Cn1ncc2ccc(-c3n[nH]c4c3Cc3sc(-c5ccc(CN6CCC6)cc5)cc3-4)cc21` [Compound 103, 6-(4-(azetidin-1-ylmethyl)phenyl)-3-(1-methyl-1H-indazol-6-yl)-1,4-dihydro-thieno[2′,3′:4,5]cyclopenta [1,2-c]pyrazole], the IC50 in test [1] is 1 to 10 nM; in test [2], more than 10000 nM; in test [3], more than 10000 nM; in test [4], less than 1 nM.
